One block for each compound: values may come before it.
How the values were obtained:
[1] = biological target: T1, human MCHR1 (Homo sapiens, UniProt Q99705); assay: Human MCH receptor 1 (MCHR1) competitive binding assay, [125I]-MCH(4-19), CHO cell membrane fraction; details: test compound 0.1 μM, human MCHR1-expressing CHO cell membrane, 25° C., 1 hr, read-out: Binding inhibition rate (0.1 μM)
T1 construct: expressed in transfected cells; host or cells: CHO cell clone 57 (membrane fraction)
Description: Determination of Human MCH Receptor 1 (MCHR1) Competitive Inhibitory Activity of Test Compound Using Binding Assay
Using human MCHR1(=SLC-1 receptor)-expressing CHO cell clone 57 and rat MCHR1-expressing CHO cell clone 44 described in WO01/82925, MCHR1-expressing CHO cellular membrane fractions were prepared by the following method. In phosphate buffered saline (pH 7.4) supplemented with 5 mM EDTA (ethylenediaminetetraacetic acid) were respectively suspended human and rat MCHR1-expressing CHO cells (1×10^8 cells) and centrifuged. Homogenate buffer (10 mL, 10 mM NaHCO3, 5 mM EDTA, pH 7.5, 0.5 mM PMSF (phenylmethylsulfonyl fluoride), 20 mg/L leupeptin, 4 mg/L E-64, 1 mg/L pepstatin A) was added to the pellets of the cells and, using Polytron Homogenizer, the mixture was homogenated. The supernatant obtained after centrifugation at 400×g for 10 min was further centrifuged at 100,000×g for 1 hr to give precipitate of the membrane fraction. The precipitate were suspended in 2 mL of assay buffer [20 mM Tris-HCl (pH 7.5), 5 mM EDTA, 0.5 mM PMSF, 20 mg/L leupeptin, 4 mg/L E-64, 1 mg/L pepstatin A]. The membrane fractions were suspended in assay buffer to a protein concentration of 2 mg/mL, and after dispensing, preserved at −80° C. and used upon thawing each time when in use.
The MCHR1 ligand binding inhibitory activity of the test compound was determined as follows. An MCHR1-expressing CHO cellular membrane fraction (175 μL) diluted with an assay buffer was dispensed to a 96 well polypropylene plate (3363, Corning). DMSO solution (2 μL), 100 μm cold MCH(1-19) diluted with DMSO solution (2 μL), or a test compound solution diluted with DMSO solution to various concentrations (2 μL) was added, and lastly, [^125I]-MCH(4-19) diluted with assay buffer (25 μL) was added to each well. The reaction mixture was reacted at 25° C. for 1 hr with stirring, and the reaction mixture was filtered by suction using a glass filter plate (GF/C, PerkinElmer). The filter was washed 3 times with a wash solution (300 μL, 50 mM Tris-HCl buffer, pH 7.5). The glass filter plate was dried, a liquid scintillator was added at 25 μL/well, and the residual radioactivity was measured by TopCount (PerkinElmer). The binding inhibition rate of the test compound was calculated by the following formula. Binding inhibition (%)=(radioactivity upon addition of test compound and hot MCH−radioactivity upon addition of cold MCH and hot MCH solution)/(radioactivity upon addition of DMSO solution and hot MCH−radioactivity upon addition of cold MCH and hot MCH solution)×100

[2] = biological target: T1, human MCHR1; assay: MCH receptor 1 antagonistic activity, Ca2+ mobilization assay in human MCHR1-expressing CHO cells; format: cell-based; details: test compound 0.1 μM; human MCHR1-expressing CHO cell; ligand MCH (4-19) peptide 20 nM; Fluo4 fluorescence; read-out: Inhibition rate (%)
Description: Measurement of MCH Receptor 1 Antagonistic Activity of Test Compound Using Ca^2+ Mobilization Assay
CHO cell (CHO dhfr^−, clone #4) expressing a recombinant human MCHR1 gene for Ca^2+ mobilization assay was prepared by us. The cell was cultured in MEMα medium [445 mL of MEMα medium without nucleic acid and added with 5 mL of Penicillin-Streptomycin (Invitrogen) and 50 mL of dialyzed fetal bovine serum]. An integrated dispensing function fluorometer (CellLux, PerkinElmer) was used for Ca^2+ mobilization assay. CHO cells were sown in a 96 well plate (type 3904, Corning) with a black plate wall and clear well bottom at a density of 20000 cells/well, and cultured in an incubator for about 24 hr at 5% CO2, 37° C. The medium was removed, and the cells were washed with phosphate buffered saline (PBS). A Ca^2+ indicator dye reagent (DOJINDO LABORATORIES, Ca screening no-wash kit Fluo4) was added at 90 μL/well, and the dye was allowed to penetrate into the cell for 30 min in an incubator at 5% CO2, 37° C. The plate was set on a plate reader, a test compound solution diluted with an assay buffer [10 mM HEPES (pH 7.4), 1× assay buffer containing 0.1% BSA (DOJINDO LABORATORIES, attached to Ca screening no-wash kit Fluo4)] or DMSO solution was added at 10 μL/well, and ligand MCH (4-19) peptide (final concentration 20 nM) diluted with assay buffer or DMSO was added at 50 μL/well, during which changes in intracellular fluorescence were measured at 2 second intervals. The antagonistic activity of the test compound was calculated and shown as an inhibition rate (%) wherein the intracellular fluorescence activity resulting from the stimulation by the addition of ligand MCH (4-19) peptide was 100% and that of the well added with DMSO solution alone was 0%.

[3] = test system: Dietary obese male F344/Jcl rats; assay: Anorectic effect (food intake) in dietary obese male F344/Jcl rats; format: in vivo; details: Rattus norvegicus, 48 h; oral, 0.5% methylcellulose suspension (5 mg/mL) at 2 mL/kg, on start day and evening of next day; food intake from initial administration to 2 days later; vs control group; read-out: Food intake inhibition rate (%)
From the text: Evaluation of Anorectic Effect Using Dietary Obese Male F344/Jcl Rats
Dietary obese male F344/Jcl rats (42-57-week-old) reared on a high-fat diet (Research Diets: D12451) from 5 weeks of age were used. From before the start of experiment, the rats were independently raised, a powder high-fat diet (Research Diets: D12451M) was given, tap water was orally administered for acclimation, and thereby the rats were habituated. The food intake from the evening of the day before the start of experiment to the next morning was measured, and the rats were grouped based on the food intake and the body weight of the previous day as indices. On the day of the start of experiment and in the evening of the next day, 0.5% methylcellulose solution was orally administered to the control group, and 0.5% methylcellulose suspension (5 mg/mL) of the test compound was orally administered to the compound administration group at 2 mL/kg (6 per group for both control group and compound administration group). The food intake from the initial administration to 2 days later was measured. The food intake inhibition rate of each compound administration group to the control group was calculated.

T1 sequence (Q99705 whole entry): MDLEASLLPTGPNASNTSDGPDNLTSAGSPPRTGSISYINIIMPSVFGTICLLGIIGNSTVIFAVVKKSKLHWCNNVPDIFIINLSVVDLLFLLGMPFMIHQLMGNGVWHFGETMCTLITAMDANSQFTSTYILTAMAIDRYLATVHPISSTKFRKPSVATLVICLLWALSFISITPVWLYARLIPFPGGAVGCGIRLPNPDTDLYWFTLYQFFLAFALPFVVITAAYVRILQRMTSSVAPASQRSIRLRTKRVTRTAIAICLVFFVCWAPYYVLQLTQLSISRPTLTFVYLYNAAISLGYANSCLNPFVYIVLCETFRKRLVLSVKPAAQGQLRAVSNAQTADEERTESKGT

SMILES: Cc1c(NC(=O)c2ccc(OC[C@@H]3CCCO3)cc2F)ccc2cc(CN[C@H]3CC[C@](C)(O)CC3)n(C)c12 [Example 88, 2-fluoro-N-(2-{[(trans-4-hydroxy-4-methylcyclohexyl)amino]methyl}-1,7-dimethyl-1H-indol-6-yl)-4-[(2S)-tetrahydrofuran-2-ylmethoxy]benzamide]
- inhibition at 0.1 µM [1]: 95%
- melting point: 131 to 132 °C
- inhibition at 0.1 µM [2]: 98%
- inhibition in vivo at 10 mg/kg [3]: 17.5%

SMILES: Cn1c(CNCC(C)(C)C)cc2cc(NC(=O)c3ccc(OC[C@@H]4CCCO4)cc3)ccc21 [Example 15, N-(2-{[(2,2-dimethylpropyl)amino]methyl}-1-methyl-1H-indol-5-yl)-4-[(2S)-tetrahydrofuran-2-ylmethoxy]benzamide acetate]
- inhibition at 0.1 µM [1]: 96%
- inhibition in vivo at 10 mg/kg [3]: 12.7%

SMILES: Cc1c(NC(=O)c2ccc(OC[C@@H]3CCCO3)cc2)ccc2cc(CN3CCC(C)(O)CC3)[nH]c12 [Example 75, N-{2-[(4-hydroxy-4-methylpiperidin-1-yl)methyl]-7-methyl-1H-indol-6-yl}-4-[(2S)-tetrahydrofuran-2-ylmethoxy]benzamide]
- inhibition at 0.1 µM [1]: 94%
- melting point: 169 °C
- inhibition in vivo at 10 mg/kg [3]: 17.1%

SMILES: Cc1c(NC(=O)c2ccc(OCC3CC3)cc2)ccc2cc(CN[C@H]3CC[C@](C)(O)CC3)[nH]c12 [Example 67, 4-(cyclopropylmethoxy)-N-(2-{[(trans-4-hydroxy-4-methylcyclohexyl)amino]methyl}-7-methyl-1H-indol-6-yl)benzamide]
- inhibition at 0.1 µM [1]: 101%
- melting point: 91 to 103 °C

SMILES: Cc1c(NC(=O)c2ccc(OC[C@@H]3CCCO3)cc2)ccc2c1cc(CNCC(C)(C)C)n2C [Example 51, N-(2-{[(2,2-dimethylpropyl)amino]methyl}-1,4-dimethyl-1H-indol-5-yl)-4-[(2S)-tetrahydrofuran-2-ylmethoxy]benzamide]
- inhibition at 0.1 µM [1]: 92%
- melting point: 179 °C

SMILES: Cc1c(CNCC(C)(C)C)[nH]c2c(F)c(NC(=O)c3ccc(OC[C@@H]4CCCO4)cc3)ccc12 [Example 103, N-(2-{[(2,2-dimethylpropyl)amino]methyl}-7-fluoro-3-methyl-1H-indol-6-yl)-4-[(2S)-tetrahydrofuran-2-ylmethoxy]benzamide]
- inhibition at 0.1 µM [1]: 100%
- melting point: 159 to 160 °C

SMILES: Cc1c(NC(=O)c2ccc(OCC3CC3)cc2)ccc2c1cc(CNCC(C)(C)O)n2C [Example 50, 4-(cyclopropylmethoxy)-N-(2-{[(2-hydroxy-2-methylpropyl)amino]methyl}-1,4-dimethyl-1H-indol-5-yl)benzamide]
- inhibition at 0.1 µM [1]: 97%
- melting point: 175 to 176 °C
- inhibition at 0.1 µM [2]: 97%
- inhibition in vivo at 10 mg/kg [3]: 26.5%

The next lines start with results.

- inhibition at 0.1 µM [1]: 99%
- melting point: 197 to 198 °C
- inhibition at 0.1 µM [2]: 96%
SMILES: Cc1c(NC(=O)c2ccc(OC[C@@H]3CCCO3)cc2)ccc2cc(CNCC3CCOCC3)n(C)c12 [Example 83, N-(1,7-dimethyl-2-{[(tetrahydro-2H-pyran-4-ylmethyl)amino]methyl}-1H-indol-6-yl)-4-[(2S)-tetrahydrofuran-2-ylmethoxy]benzamide]

- inhibition at 0.1 µM [1]: 101%
- melting point: 171 to 172 °C
- inhibition at 0.1 µM [2]: 97%
SMILES: Cc1c(NC(=O)c2ccc(OC[C@@H]3CCCO3)cc2)ccc2cc(CN[C@H]3CC[C@](C)(O)CC3)n(C)c12 [Example 84, N-(2-{[(trans-4-hydroxy-4-methylcyclohexyl)amino]methyl}-1,7-dimethyl-1H-indol-6-yl)-4-[(2S)-tetrahydrofuran-2-ylmethoxy]benzamide]
- inhibition in vivo at 10 mg/kg [3]: 12.1%

- inhibition at 0.1 µM [1]: 97%
- melting point: 157 to 158 °C
- inhibition at 0.1 µM [2]: 97%
SMILES: Cn1c(CNCC2CCOCC2)cc2cc(NC(=O)c3ccc(OC[C@@H]4CCCO4)cc3)ccc21 [Example 17, N-(1-methyl-2-{[(tetrahydro-2H-pyran-4-ylmethyl)amino]methyl}-1H-indol-5-yl)-4-[(2S)-tetrahydrofuran-2-ylmethoxy]benzamide]
- inhibition in vivo at 10 mg/kg [3]: 14.7%

- inhibition at 0.1 µM [1]: 98%
- melting point: 166 to 167 °C
- inhibition at 0.1 µM [2]: 99%
SMILES: Cc1c(NC(=O)c2ccc(OC[C@@H]3CCCO3)cc2)ccc2c1cc(CNCC1CCOCC1)n2C [Example 55, N-(1,4-dimethyl-2-{[(tetrahydro-2H-pyran-4-ylmethyl)amino]methyl}-1H-indol-5-yl)-4-[(2S)-tetrahydrofuran-2-ylmethoxy]benzamide]
- inhibition in vivo at 10 mg/kg [3]: 22.7%

- inhibition at 0.1 µM [1]: 97%
- melting point: 200 °C
- inhibition at 0.1 µM [2]: 96%
SMILES: Cc1c(NC(=O)c2ccc(OC[C@@H]3CCCO3)cc2)ccc2c1cc(CN[C@H]1CC[C@](C)(O)CC1)n2C [Example 53-2, N-(2-{[(trans-4-hydroxy-4-methylcyclohexyl)amino]methyl}-1,4-dimethyl-1H-indol-5-yl)-4-[(2S)-tetrahydrofuran-2-ylmethoxy]benzamide]

- inhibition at 0.1 µM [1]: 91%
- melting point: 128 to 129 °C
SMILES: Cn1c(CNCC2CCOC2)cc2cc(NC(=O)c3ccc(OC[C@@H]4CCCO4)cc3)ccc21 (stereo partly drawn) [Example 20, N-(1-methyl-2-{[(tetrahydrofuran-3-ylmethyl)amino]methyl}-1H-indol-5-yl)-4-[(2S)-tetrahydrofuran-2-ylmethoxy]benzamide]
- inhibition in vivo at 10 mg/kg [3]: 20.3%

- inhibition at 0.1 µM [1]: 95%
- melting point: 161 to 162 °C
SMILES: Cc1c(NC(=O)c2ccc(OC[C@@H]3CCCO3)cc2)ccc2cc(CNCC3CCOCC3)[nH]c12 [Example 70, N-(7-methyl-2-{[(tetrahydro-2H-pyran-4-ylmethyl)amino]methyl}-1H-indol-6-yl)-4-[(2S)-tetrahydrofuran-2-ylmethoxy]benzamide]
